Series [1] has as its target T1, CYP2D6 (Homo sapiens, UniProt P10635).
T1 construct: enzyme, pooled human hepatic microsome 0.2 mg protein/mL; from tissue; host or cells: pooled human liver microsomes
Briefly: CYP inhibition assay, dextromethorphan O-demethylation. The class given is in vitro ADME. The conditions noted are these: pooled human liver microsomes, probe dextromethorphan (O-demethylation), 5 μmol/L, pooled human hepatic microsome. As for the experimental part:
(§1) Using commercially available pooled human hepatic microsome, and employing, as markers, 7-ethoxyresorufin O-deethylation (CYP1A2), tolbutamide methyl-hydroxylation (CYP2C9), mephenytoin 4′-hydroxylation (CYP2C19), dextromethorphan O-demethylation (CYP2D6), and terfenedine hydroxylation (CYP3A4) as typical substrate metabolism reactions of human main five CYP enzyme forms (CYP1A2, 2C9, 2C19, 2D6, 3A4), an inhibitory degree of each metabolite production amount by a test compound was assessed.
(§2) The reaction conditions were as follows: substrate, 0.5 μmol/L ethoxyresorufin (CYP1A2), 100 μmol/L tolbutamide (CYP2C9), 50 μmol/L S-mephenytoin (CYP2C19), 5 μmol/L dextromethorphan (CYP2D6), 1 μmol/L terfenedine (CYP3A4); reaction time, 15 minutes; reaction temperature, 37° C.; enzyme, pooled human hepatic microsome 0.2 mg protein/mL; test drug concentration, 1, 5, 10, 20 μmol/L (four points).
(§3) Each five kinds of substrates, human hepatic microsome, and a test drug in 50 mmol/L Hepes buffer as a reaction solution was added to a 96-well plate as the composition as described above, NADPH, as a cofactor was added to initiate metabolism reactions as markers and, after the incubation at 37° C. for 15 minutes, a methanol/acetonitrile=1/1 (v/v) solution was added to stop the reaction. After the centrifugation at 3000 rpm for 15 minutes, resorufin (CYP1A2 metabolite) in the supernatant was quantified by a fluorescent multilabel counter and tolbutamide hydroxide (CYP2C9 metabolite), mephenytoin 4′ hydroxide (CYP2C19 metabolite), dextrorphan (CYP2D6 metabolite), and terfenadine alcohol (CYP3A4 metabolite) were quantified by LC/MS/MS.
(§4) A reaction system containing only DMSO which is a solvent for dissolving a drug was adopted as a control (100%), and the remaining activity (%) was calculated, then IC50 was calculated by reverse presumption with a logistic model using a concentration and an inhibition rate.
On the technique in general: Microsomes from liver hold many membrane-bound enzymes, among them those of drug oxidation.

Series [2] concerns the target T2, CYP2C19 (Homo sapiens, UniProt P33261).
T2 construct: enzyme, pooled human hepatic microsome 0.2 mg protein/mL; from tissue; host or cells: pooled human liver microsomes
Description: CYP inhibition assay, mephenytoin 4'-hydroxylation. The class given is in vitro ADME. The conditions noted are these: pooled human liver microsomes, probe S-mephenytoin (4'-hydroxylation), 50 μmol/L, pooled human hepatic microsome. The procedure: as §1, §2, §3, §4

Series [3] deals with T3, CYP1A2 (Homo sapiens, UniProt P05177).
T3 construct: enzyme, pooled human hepatic microsome 0.2 mg protein/mL; from tissue; host or cells: pooled human liver microsomes
T3 sequence (P05177 1-516): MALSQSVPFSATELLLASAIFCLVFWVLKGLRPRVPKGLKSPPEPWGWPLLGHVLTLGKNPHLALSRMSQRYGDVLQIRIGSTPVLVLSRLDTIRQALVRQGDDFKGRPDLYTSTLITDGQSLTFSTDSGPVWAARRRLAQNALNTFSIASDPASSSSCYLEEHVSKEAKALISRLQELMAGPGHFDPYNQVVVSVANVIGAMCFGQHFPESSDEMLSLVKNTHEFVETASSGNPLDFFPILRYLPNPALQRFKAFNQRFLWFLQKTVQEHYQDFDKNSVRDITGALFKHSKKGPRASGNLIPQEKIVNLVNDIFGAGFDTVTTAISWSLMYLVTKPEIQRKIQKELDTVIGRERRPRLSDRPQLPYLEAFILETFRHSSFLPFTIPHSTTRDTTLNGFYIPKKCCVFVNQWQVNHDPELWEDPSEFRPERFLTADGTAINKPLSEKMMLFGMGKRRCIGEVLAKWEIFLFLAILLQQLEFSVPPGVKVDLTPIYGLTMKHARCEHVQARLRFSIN
Description: CYP inhibition assay, 7-ethoxyresorufin O-deethylation. The class given is in vitro ADME. To be noted: pooled human liver microsomes, probe 7-ethoxyresorufin (O-deethylation), 0.5 μmol/L, pooled human hepatic microsome. The procedure: as §1, §2, §3, §4

The target of series [4] is T4, CYP3A4 (Homo sapiens, UniProt P08684).
T4 construct: enzyme, pooled human hepatic microsome 0.2 mg protein/mL; from tissue; host or cells: pooled human liver microsomes
Briefly: CYP inhibition assay, terfenedine hydroxylation. The class given is in vitro ADME. The conditions noted are these: pooled human liver microsomes, probe terfenedine (hydroxylation), 1 μmol/L, pooled human hepatic microsome. The procedure:
as §1, §2, §3, §4

A short description of series [5]: Solubility test, 1% DMSO addition, artificial intestinal juice pH 6.8. The class given is physicochemical. The conditions noted are these: artificial intestinal juice with 1% DMSO, fassgf or other biorelevant, kinetic from dmso stock; pH 6.8, 1% DMSO addition, 16 hours at 25° C. As for the experimental part:
The solubility of each compound was determined under 1% DMSO addition conditions. A 10 mmol/L solution of the compound was prepared with DMSO, and 6 μL of the solution was added to 594 μL of an artificial intestinal juice (water and a 118 mL solution of 0.2 mol/L NaOH reagent are added to 250 mL of 0.2 mol/L potassium dihydrogen phosphate reagent to reach 1000 mL) with a pH of 6.8. The mixture is left standing for 16 hours at 25° C., and the mixture is vacuum-filtered. The filtrate is two-fold diluted with methanol/water=1/1 (v/v), and the compound concentration in the filtrate is measured with HPLC or LC/MS/MS by the absolute calibration method.

For series [6], the system named is HIV (HTLV-III B strain). Description: HIV replication inhibition assay (MTT, MT-4 cells). The class given is cell-based. The conditions noted are these: Human immunodeficiency virus 1, MT4, 96 h, four days culture, concentration at which cell cytotoxicity by virus is inhibited 50%. The procedure: HIV (HTLV-III B strain) persistent infected human T cell strain Molt-4 clone 8 was cultured in 10% Fetal Bovine Serum-containing RPMI-1640 medium and the supernatant was filtrated, then the virus titer was measured and the solution was stored at −80° C. Each anti-human immunodeficiency virus active substance was diluted with the above cultured medium to the designated concentration, which was dispensed into 96 well micro plate by 50 μL. Next, a MT-4 cell suspended liquid was dispensed by 100 μL (2.5×10^4 cells), then the above HIV-containing supernatant diluted with the above cultured medium was added thereto by 50 μL (60 pfu (plaque forming unit)).
The obtained mixture was cultured at 37° C. in CO2 incubator for four days, then 3-(4,5-dimehylthiazole-2-yl)-2,5-diphenyltetrazolynium bromide (MTT) 5 mg/mL in PBS was added to each well by 30 μL, followed by 1 hr-cultivation. In this step, as formazan was precipitated by reduction of MTT in living cells, the cell supernatant was removed from all well by 150 μL, then a 150 μL of solution (10% Triton X-100 and […]) was added thereto, followed by shaking with a plate mixer, to elute formazan. The formazan was measured with a microreader at OD: 560 nm and 690 nm (wavelength) and the result was compared with the reference. EC50 means the compound concentration at which cell cytotoxicity by virus is inhibited 50%.

pEC50: −log10 of the molar value.

T4 sequence (P08684 whole entry): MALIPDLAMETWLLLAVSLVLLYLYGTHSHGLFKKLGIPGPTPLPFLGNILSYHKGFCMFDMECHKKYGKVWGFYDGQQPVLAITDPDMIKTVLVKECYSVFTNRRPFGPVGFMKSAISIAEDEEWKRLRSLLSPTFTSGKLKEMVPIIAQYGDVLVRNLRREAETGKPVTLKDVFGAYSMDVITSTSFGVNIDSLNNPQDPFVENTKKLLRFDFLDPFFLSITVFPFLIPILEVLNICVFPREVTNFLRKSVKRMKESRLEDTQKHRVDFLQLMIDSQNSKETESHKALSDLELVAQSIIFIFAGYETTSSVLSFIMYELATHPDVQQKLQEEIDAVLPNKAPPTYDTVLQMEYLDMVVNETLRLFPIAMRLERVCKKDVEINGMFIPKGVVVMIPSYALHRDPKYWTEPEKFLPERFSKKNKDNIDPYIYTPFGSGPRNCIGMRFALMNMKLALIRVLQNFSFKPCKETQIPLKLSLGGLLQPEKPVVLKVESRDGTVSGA
T2 sequence (P33261 whole entry): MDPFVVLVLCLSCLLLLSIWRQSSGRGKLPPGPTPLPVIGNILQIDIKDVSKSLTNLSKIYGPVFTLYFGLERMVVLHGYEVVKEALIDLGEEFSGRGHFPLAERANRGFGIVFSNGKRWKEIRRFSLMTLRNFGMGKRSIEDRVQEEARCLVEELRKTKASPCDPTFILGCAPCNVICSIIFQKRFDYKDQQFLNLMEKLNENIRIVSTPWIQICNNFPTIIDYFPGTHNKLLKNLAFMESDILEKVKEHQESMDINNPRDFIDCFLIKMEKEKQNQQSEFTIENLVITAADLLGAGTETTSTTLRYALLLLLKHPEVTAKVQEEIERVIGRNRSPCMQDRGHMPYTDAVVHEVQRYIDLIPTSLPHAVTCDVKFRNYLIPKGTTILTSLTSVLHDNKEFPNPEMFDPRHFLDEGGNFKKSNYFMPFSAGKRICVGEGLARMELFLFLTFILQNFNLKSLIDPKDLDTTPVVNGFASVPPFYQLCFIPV
T1 sequence (P10635 whole entry): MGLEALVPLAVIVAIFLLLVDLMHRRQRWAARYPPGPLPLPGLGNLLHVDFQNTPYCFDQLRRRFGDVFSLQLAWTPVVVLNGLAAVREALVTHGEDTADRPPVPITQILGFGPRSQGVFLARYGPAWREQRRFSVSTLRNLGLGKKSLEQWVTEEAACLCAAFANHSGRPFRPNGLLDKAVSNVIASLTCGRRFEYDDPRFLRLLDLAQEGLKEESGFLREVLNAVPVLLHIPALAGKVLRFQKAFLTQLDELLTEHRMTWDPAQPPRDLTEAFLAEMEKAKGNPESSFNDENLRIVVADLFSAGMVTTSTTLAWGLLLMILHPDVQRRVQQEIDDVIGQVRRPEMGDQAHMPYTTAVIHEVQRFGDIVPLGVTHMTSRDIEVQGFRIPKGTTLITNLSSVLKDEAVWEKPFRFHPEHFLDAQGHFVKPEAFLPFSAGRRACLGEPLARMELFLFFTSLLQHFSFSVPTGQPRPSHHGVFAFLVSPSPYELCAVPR

In the case of `Cc1ccc(-c2c(N)cc(C(OC(C)(C)C)C(=O)O)c(-c3ccc(C)c(C)c3)c2C)cc1C` (stereo not shown) [Compound I-2], the IC50 at 15 min in series [1], in series [2], in series [3] and in series [4] was not below 20000 nM in each case. Moreover, in series [5], the solubility at 16 h is not below 50 µM.

For the compound `CC(=O)Nc1cc(C(OC(C)(C)C)C(=O)O)c(-c2ccc(C)c(C)c2)c(C)c1-c1ccc(C)c(C)c1` (stereo not shown) [Compound I-3], the IC50 at 15 min in series [1], in series [2], in series [3] and in series [4] was not below 20000 nM in each case. The solubility at 16 h in series [5] is not below 50 µM.

Regarding `CC(=O)Nc1c(Br)c(C(OC(C)(C)C)C(=O)O)c(-c2ccc(C)c(C)c2)c(C)c1-c1ccc(C)c(C)c1` (stereo not shown) [Compound I-4], the IC50 at 15 min in series [1], in series [2], in series [3] and in series [4] was not below 20000 nM in each case. Moreover, the solubility at 16 h in series [5] was not below 50 µM. In series [6], this compound showed a pEC50 of 7.89.

For `COC(=O)Nc1cc(C(OC(C)(C)C)C(=O)O)c(-c2ccc(C)c(C)c2)c(C)c1-c1ccc(C)c(C)c1` (stereo not shown) [Compound I-5], the IC50 at 15 min in series [1], in series [2], in series [3] and in series [4] was not below 20000 nM each time.

With `Cc1ccc(-c2c(C)c(-c3ccc(C)c(C)c3)c(C(OC(C)(C)C)C(=O)O)c(C)c2N)cc1C` (stereo not shown) [Compound I-7], the IC50 at 15 min in series [1], in series [2], in series [3] and in series [4] was not below 20000 nM in each case. This compound had a pEC50 in series [6] of 7.74.

Consider `CC(=O)N(C)c1c(C)c(C(OC(C)(C)C)C(=O)O)c(-c2ccc(C)c(C)c2)c(C)c1-c1ccc(C)c(C)c1` (stereo not shown) [Compound I-8], for which the IC50 at 15 min in series [1], in series [2], in series [3] and in series [4] was not below 20000 nM throughout.

As to `Cc1ccc(-c2c(C(OC(C)(C)C)C(=O)O)cc(N(C)C(=O)C(C)C)c(-c3ccc(C)c(C)c3)c2C)cc1C` (stereo not shown) [Compound I-9], the IC50 at 15 min in series [1], in series [2], in series [3] and in series [4] was not below 20000 nM throughout.

For `Cc1ccc(-c2c(NC(=O)C(C)C)cc(C(OC(C)(C)C)C(=O)O)c(-c3ccc(C)c(C)c3)c2C)cc1C` (stereo not shown) [Compound I-10], the IC50 at 15 min in series [1], in series [2], in series [3] and in series [4] was not below 20000 nM each time. This compound also gave a solubility at 16 h in series [5] not below 50 µM.

In series [6], `CNc1c(C)c(C(OC(C)(C)C)C(=O)O)c(-c2ccc(C)c(C)c2)c(C)c1-c1ccc(C)c(C)c1` (stereo not shown) [Compound I-14] showed a pEC50 of 7.72.

In the case of `Cc1cc(NS(=O)(=O)c2cccc3ccccc23)c(C)c(C(OC(C)(C)C)C(=O)O)c1-c1ccc2c(c1)CCCO2` (stereo not shown) [Compound I-60], in series [6], the pEC50 is 8.40.

`Cc1cc(NS(=O)(=O)c2cccc3cccnc23)c(C)c(C(OC(C)(C)C)C(=O)O)c1-c1ccc2c(c1)CCCO2` (stereo not shown) [Compound I-66]: the pEC50 in series [6] was 8.35.

For the compound `Cc1cc(NS(=O)(=O)CC2CCCCC2)c(C)c(C(OC(C)(C)C)C(=O)O)c1-c1ccc2c(c1)CCCO2` (stereo not shown) [Compound I-82], the pEC50 in series [6] was 8.39.

In turn, `Cc1cc(NS(=O)(=O)c2cccc(Cl)c2Cl)c(C)c(C(OC(C)(C)C)C(=O)O)c1-c1ccc2c(c1)CCCO2` (stereo not shown) [Compound I-121] gave a pEC50 in series [6] of 8.28.

The compound `Cc1c(-c2c(C)c(C)c(NS(=O)(=O)c3cccc4ccccc34)c(C)c2C(OC(C)(C)C)C(=O)O)ccc2c1CCCO2` (stereo not shown) [Compound I-140] showed a pEC50 in series [6] of 8.72.

As to `Cc1c(-c2c(C)c(C)c(NS(=O)(=O)c3cccc4ccccc34)c(C)c2[C@H](OC(C)(C)C)C(=O)O)ccc2c1CCCO2` [Compound I-145], the pEC50 in series [6] is 8.92.

Take `Cc1cc(NS(=O)(=O)CC2CCCCC2)c(C)c(C(OC(C)(C)C)C(=O)O)c1-c1ccc2c(c1C)CCCO2` (stereo not shown) [Compound I-150]: in series [6], the pEC50 is 8.64.

In series [6], `Cc1ccc(-c2c(C)c(C3=CCCCCC3)c(C(OC(C)(C)C)C(=O)O)c(C)c2NS(C)(=O)=O)cc1C` (stereo not shown) [Compound I-168] gave a pEC50 of 8.41.

`Cc1ccc(-c2c(C)c(-c3ccc4c(c3C)CCCO4)c(C(OC(C)(C)C)C(=O)O)c(C)c2NS(C)(=O)=O)cc1C` (stereo not shown) [Compound I-215]: the pEC50 in series [6] was 8.66.

The compound `Cc1c(OCc2ccccc2)c(N(C)S(C)(=O)=O)c(C)c(C(OC(C)(C)C)C(=O)O)c1-c1ccc2c(c1)CCCO2` (stereo not shown) [Compound I-263] showed a pEC50 in series [6] of 8.60.

`COc1ccc(-c2c(C)cc(NS(=O)(=O)CC3CCCCC3)c(C)c2C(OC(C)(C)C)C(=O)O)cc1` (stereo not shown) [Compound I-285] gave a pEC50 in series [6] of 8.35.

Turning to `Cc1cc(-c2c(C)c(-c3ccc4c(c3C)CCCO4)c([C@H](OC(C)(C)C)C(=O)O)c(C)c2NS(C)(=O)=O)ccc1F` [Compound I-305], in series [6], the pEC50 was 8.70.

Regarding `Cc1cc(-c2c(C)c(-c3cc(F)c4c(c3C)CCCO4)c([C@H](OC(C)(C)C)C(=O)O)c(C)c2NS(C)(=O)=O)ccc1F` [Compound I-310], in series [6], the pEC50 was 8.40.

In turn, `Cc1cc2c(c(C(OC(C)(C)C)C(=O)O)c1-c1ccc3c(c1)CCCO3)CCCN2S(=O)(=O)c1cccc2ccccc12` (stereo not shown) [II-14] had a pEC50 in series [6] of 8.32.

In turn, `Cc1cc2c(c(C(OC(C)(C)C)C(=O)O)c1-c1ccc3c(c1)CCCO3)CCCN2S(=O)(=O)c1cccc2cccnc12` (stereo not shown) [II-17] showed a pEC50 in series [6] of 8.60.

In turn, `Cc1ccc(-c2c(C)c(-c3ccc(C)c(C)c3)c3c(c2[C@H](OC(C)(C)C)C(=O)O)CCC(=O)N3C)cc1C` [II-42] showed a pEC50 in series [6] of 8.36.

By IC50 is commonly meant the concentration at which inhibition is half-maximal. A low value points to inhibition by little substance. One may read the solubility as how much of the substance goes into solution per volume. High values mean much dissolved substance, low ones little dissolved substance. As usually defined, the pEC50 is the negative decadic logarithm of the EC50, by convention in mol/L. Read a high pEC50 as a low EC50.

The values are drawn from US9199959B2, “HIV replication inhibitor” (Shionogi & Co., Ltd., priority 2011, dated 2015).
